The text below walks through data of patent US20130102683A1, “MELT-GRANULATED FINGOLIMOD” (RATIOPHARM GMBH, priority 2010, published 2013).

Structures can show the parent of a compound that is named as a salt.

A short description of the series: Water adsorption of fingolimod salts under set atmospheric humidity (hygrostat). Format: physicochemical. To be noted: atmospheric humidity set at 75% by means of a hygrostat; after 2 weeks. From the text:
In addition, experiments on various salts of fingolimod have shown that depending on the ambient conditions, the possibility of water adsorption exists. […] Water adsorption on this scale is detrimental to the storage stability of dosage forms containing fingolimod, especially in the case of tablets, granules or powders.

Turning to `CCCCCCCCc1ccc(CCC(N)(CO)CO)cc1` [hydrochloride of fingolimod], the “increase of water content” value is recorded as 7 fold.
